# Source: patent publication US20020049223A1, “Quinoline and naphthyridine carboxylic acid antibacterials” (priority 1999, published 2002)
# Counter-ions that a name gives are not always drawn.
# Key:
# [1] = tested on: Haemophilus influenzae DILL AMP R; assay: Assay A: in vitro antibacterial activity, agar dilution MIC; type: cell-based; conditions: Table 1, Assay A, BHI agar, 35-37° C., about 20 to 24 hours; code E = Haemophilus influenzae DILL AMP R; unit assumed
# Experimental: (§1) Assay A. Determination of Biological Activity In Vitro Assay of Antibacterial Activity
# (§2) Representative compounds of the invention were assayed in vitro for antibacterial activity. Twelve petri dishes containing successive aqueous dilutions of the test compound mixed with sterilized Brain Heart Infusion (BHI) agar (Difco 0418-01-5) (10 mL) were prepared. Each plate was inoculated with 1:100 (or 1:10 for slow-growing strains, such as Micrococcus and Streptococcus) dilutions of up to 32 different microorganisms using a Steers replicator block. The inoculated plates were incubated at 35-37° C. for about 20 to about 24 hours. In addition, a control plate with BHI agar and no test compound was prepared and incubated at the beginning and end of each test.
# (§3) An additional plate containing a compound having known susceptibility patterns for the organisms being tested and belonging to the same antibiotic class as the test compound was also prepared and incubated as a further control and to provide test-to-test comparability. Ciprofloxacin was used for this purpose.
# (§4) After incubation, each plate was visually inspected. The minimum inhibitory concentration (MIC) was defined as the lowest concentration of drug yielding no growth, a slight haze, or sparsely isolated colonies on the inoculum spot as compared to the growth control.
# [2] = tested on: Staphylococcus aureus ATCC 6538P; assay: as above; type: cell-based; conditions: Table 1, Assay A, BHI agar, 35-37° C., about 20 to 24 hours; code A = Staphylococcus aureus ATCC 6538P; unit assumed
# Experimental: as §1, §2, §3, §4
# [3] = tested on: Moraxella catarrahalis 2604; assay: as above; type: cell-based; conditions: Table 1, Assay A, BHI agar, 35-37° C., about 20 to 24 hours; code C = Moraxella catarrahalis 2604; unit assumed
# Experimental: as §1, §2, §3, §4
# [4] = tested on: Streptococcus pneumoniae ATCC 6303; assay: as above; type: cell-based; conditions: Table 1, Assay A, BHI agar, 35-37° C., about 20 to 24 hours; code F = Streptococcus pneumoniae ATCC 6303; unit assumed
# Experimental: as §1, §2, §3, §4
# [5] = tested on: Escherichia coli JUHL; assay: as above; type: cell-based; conditions: Table 1, Assay A, BHI agar, 35-37° C., about 20 to 24 hours; code D = Escherichia coli JUHL; unit assumed
# Experimental: as §1, §2, §3, §4
# [6] = tested on: Enterococcus faecalis PIU 1967; assay: as above; type: cell-based; conditions: Table 1, Assay A, BHI agar, 35-37° C., about 20 to 24 hours; code B = Enterococcus faecalis PIU 1967; unit assumed
# Experimental: as §1, §2, §3, §4
# [7] = tested on: Haemophilus influenzae DILL AMP R; assay: Assay B: in vitro antibacterial activity, broth microdilution MIC (NCCLS); type: cell-based; conditions: Table 2, Assay B, Mueller Hinton broth with yeast extract, hematin and NAD, 20 to 24 hr; code E = Haemophilus influenzae DILL AMP R; unit assumed
# Method in brief: (§5)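 Serial two-fold dilutions in cation-adjusted Mueller Hinton broth; inoculum ~5×10^5 CFU/mL from overnight cultures; 35° C, ambient air, 16 to 20 hr. MIC read visually as lowest concentration completely inhibiting growth. S. pneumoniae: 3% lysed horse blood, 20 to 24 hr; H. influenzae: 5 g/L yeast extract, 0.3 mmol/L hematin, 15 mg/L NAD, 20 to 24 hr.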
# [8] = tested on: Staphylococcus aureus ATCC 6538P; assay: as above; type: cell-based; conditions: Table 2, Assay B, cation-adjusted Mueller Hinton broth, 35° C., 16 to 20 hr; code A = Staphylococcus aureus ATCC 6538P; unit assumed
# Method in brief: as §5
# [9] = tested on: Streptococcus pneumoniae ATCC 6303; assay: as above; type: cell-based; conditions: Table 2, Assay B, Mueller Hinton broth with 3% lysed horse blood, 20 to 24 hr; code F = Streptococcus pneumoniae ATCC 6303; unit assumed
# Method in brief: as §5
# [10] = tested on: Escherichia coli JUHL; assay: as above; type: cell-based; conditions: Table 2, Assay B, cation-adjusted Mueller Hinton broth, 35° C., 16 to 20 hr; code D = Escherichia coli JUHL; unit assumed
# Method in brief: as §5
# [11] = tested on: Enterococcus faecalis PIU 1967; assay: as above; type: cell-based; conditions: Table 2, Assay B, cation-adjusted Mueller Hinton broth, 35° C., 16 to 20 hr; code B = Enterococcus faecalis PIU 1967; unit assumed
# Method in brief: as §5
SMILES,"Antibacterial Activity (MIC's), E [1]","Antibacterial Activity (MIC's), A [2]","Antibacterial Activity (MIC's), C [3]","Antibacterial Activity (MIC's), F [4]","Antibacterial Activity (MIC's), D [5]","Antibacterial Activity (MIC's), B [6]",melting point,"Antibacterial Activity (MIC's), E [7]","Antibacterial Activity (MIC's), A [8]","Antibacterial Activity (MIC's), F [9]","Antibacterial Activity (MIC's), D [10]","Antibacterial Activity (MIC's), B [11]"
"COc1c(-c2cc3c(s2)CC(O)C3)ccc2c(=O)c(C(=O)O)cn(C3CC3)c12 (stereo not drawn) [Example 45, 1-cyclopropyl-7-(5-hydroxy-5,6-dihydro-4H-cyclopentarblthien-2-yl)-8-methoxM-4-oxo-1,4-dihydro-3-quinolinecarboxylic acid]",0.03 µg/mL,0.05 µg/mL,0.1 µg/mL,0.25 µg/mL,0.39 µg/mL,0.2 µg/mL,,,,,,
"O=C(O)c1cn(C2CC2)c2nc(-c3cc4c(s3)CCCC4O)c(F)cc2c1=O (stereo not drawn) [Example 35, 1-cyclopropyl-6-fluoro-7-(4-hydroxy-4,5,6,7-tetrahydro-1-benzothien-2-yl)-4-oxo-1,4-dihydro[1,8]naphthyridine-3-carboxylic acid]",0.06 µg/mL,0.05 µg/mL,0.05 µg/mL,0.5 µg/mL,0.78 µg/mL,0.78 µg/mL,,,,,,
Br.CC1(C)CNCc2cc(-c3ccc4c(=O)c(C(=O)O)cn(C5CC5)c4c3OC(F)F)sc21 [Example 28],0.25 µg/mL,0.2 µg/mL,0.2 µg/mL,1 µg/mL,0.78 µg/mL,0.78 µg/mL,,,,,,
"O=C1CCCc2sc(-c3nc4c(cc3F)c(=O)c(C(=O)O)cn4C3CC3)cc21 [Example 48, 1-cyclopropyl-6-fluoro-4-oxo-7-(4-oxo-4,5,6,7-tetrahydro-1-benzothien-2-yl)-1,4-dihydro[1,8]naphthyridine-3-carboxylic acid]",0.06 µg/mL,0.02 µg/mL,0.02 µg/mL,0.25 µg/mL,0.78 µg/mL,0.2 µg/mL,,,,,,
"COc1c(-c2cc3c(s2)CCC(C)(C)C3O)ccc2c(=O)c(C(=O)O)cn(C3CC3)c12 (stereo not drawn) [Example 213, 1-cyclopropyl-7-(4-hydroxy-5,5-dimethyl-4,5,6,7-tetrahydro-1-benzothien-2-yl)-8-methoxy-4-oxo-1,4-dihydro-3-quinolinecarboxylic acid]",,,,,,,93 to 94 °C,0.25 µg/mL,0.03 µg/mL,0.5 µg/mL,0.5 µg/mL,0.5 µg/mL
"O=C(O)c1cn(C2CC2)c2nc(-c3cc4c(s3)CCC/C4=N\O)c(F)cc2c1=O [Example 49, 1-cyclopropyl-6-fluoro-7-((4E)-4-(hydroxyimino)-4,5,6,7-tetrahydro-1-benzothien-2-yl)-4-oxo-1,4-dihydro[1,8]naphthyridine-3-carboxylic acid]",0.06 µg/mL,0.05 µg/mL,0.05 µg/mL,0.25 µg/mL,0.78 µg/mL,0.39 µg/mL,,,,,,
"Br.CC1Cc2sc(-c3ccc4c(=O)c(C(=O)O)cn(C5CC5)c4c3)cc2CN1 (stereo not drawn) [Example 13, 1-cyclopropyl-7-(6-methyl-4,5,6,7-tetrahydrothieno[3,2-c]pyridin-2-yl)-4-oxo-1,4-dihydro-3-quinolinecarboxylic acid hydrobromide]",0.25 µg/mL,0.1 µg/mL,0.2 µg/mL,0.25 µg/mL,0.2 µg/mL,0.2 µg/mL,,,,,,
"CC1NCCc2cc(-c3ccc4c(=O)c(C(=O)O)cn(C5CC5)c4c3OC(F)F)sc21.Cl (stereo not drawn) [Example 52, 1-cyclopropyl-8-diflouromethoxy-7-(7-methyl-4,5,6,7-tetrahydrotheino(2,3-c)pyrindin-2-yl)-4-oxo-1,4-dihydro-3-quinolinecarboxylic acid hydrochloride]",0.25 µg/mL,0.2 µg/mL,0.2 µg/mL,0.25 µg/mL,0.39 µg/mL,0.78 µg/mL,,,,,,
"COc1c(-c2cc3c(s2)C(N)CCC3)ccc2c(=O)c(C(=O)O)cn(C3CC3)c12.Cl (stereo not drawn) [Example 201, 7-(7-amino-4,5,6,7-tetrahydro-1-benzothien-2-yl)-1-cyclopropyl-8-methoxy-4-oxo-1,4-dihydro-3-quinolinecarboxylic acid hydrochloride]",,,,,,,174 to 178 °C,0.03 µg/mL,0.015 µg/mL,0.03 µg/mL,0.125 µg/mL,0.06 µg/mL
"COc1c(-c2cc3c(s2)C(N)CCC3)c(F)cc2c(=O)c(C(=O)O)cn(C3CC3)c12.Cl (stereo not drawn) [Example 228, 7-(7-amino-4,5,6,7-tetrahydro-1-benzothien-2-yl)-1-cyclopropyl-6-fluoro-8-methoxy-4-oxo-1,4-dihydro-3-quinolinecarboxylic acid hydrochloride]",,,,,,,148 to 153 °C (dec.),0.015 µg/mL,0.008 µg/mL,0.015 µg/mL,0.06 µg/mL,0.03 µg/mL
"COc1c(-c2cc3c(s2)CCC/C3=N\OCc2ccccn2)ccc2c(=O)c(C(=O)O)cn(C3CC3)c12 (as salt: hydrochloride) [Example 183, 1-cyclopropyl-8-methoxy-4-oxo-7-((4E)-4-((2-pyridinylmethoxy)imino)-4,5,6,7-tetrahydro-1-benzothien-2-yl)-1,4-dihydro-3-quinolinecarboxylic acid]",,,,,,,178 to 179 °C,,,,,
Br.CC1(C)CNCc2cc(-c3ccc4c(=O)c(C(=O)O)cn(C5CC5)c4c3)sc21,,,,,,,> 300 °C (dec.),,,,,
CC1CNCc2sc(-c3nc4c(cc3F)c(=O)c(C(=O)O)cn4C3CC3)cc21.Cl (stereo not drawn),,,,,,,288 to 290 °C,,,,,
COc1c(-c2cc3c(s2)CNCC3C)ccc2c(=O)c(C(=O)O)cn(C3CC3)c12.Cl (stereo not drawn),,,,,,,254 to 259 °C,,,,,
"COc1c(-c2cc3c(s2)CCCC3O)ccc2c(=O)c(C(=O)O)cn(C3CC3)c12 (stereo not drawn) [Example 38, 1-cyclopropyl-7-(4-hydroxy-4,5,6,7-tetrahydro-1-benzothien-2-yl)-8-methoxy-4-oxo-1,4-dihydro-3-quinolinecarboxylic acid]",,,,,,,237 to 239 °C,,,,,
Br.COc1c(-c2cc3c(s2)C(C)(C)CNC3)ccc2c(=O)c(C(=O)O)cn(C3CC3)c12,,,,,,,212 to 217 °C (dec.),,,,,
"COc1c(-c2cc3c(s2)CCC(C)(C)/C3=N\O)ccc2c(=O)c(C(=O)O)cn(C3CC3)c12 [Example 233, 1-cyclopropyl-7-((4E/Z)-4-(hydroxyimino)-5,5-dimethyl-4,5,6,7-tetrahydro-1-benzothien-2-yl)-8-methoxy-4-oxo-1,4-dihydro-3-quinolinecarboxylic acid]",,,,,,,135 to 138 °C,0.5 µg/mL,0.03 µg/mL,2 µg/mL,8 µg/mL,0.5 µg/mL
